In US20160264570A1, “METHOD OF BLOCKING TRANSMISSION OF MALARIAL PARASITE” (THE UNITED STATES OF AMERICA, AS REPRESENTED BY THE …, priority 2013, published 2016):

Columns and labels:
[1] = test system: Asexual parasites of P. falciparum strain 3D7; assay: SYBR Green viability assay on asexual parasites; type: cell-based, Plasmodium falciparum; details: Table 6; read-out: Activity against asexual parasites EC50
[2] = test system: P. falciparum strain 3D7 gametocytes; assay: alamarBlue gametocyte viability assay, strain 3D7; details: read-out: Gametocytocidal activity EC50; Table 6

Compound	EC50 [1] [nM]	EC50 [2] [nM]
O=c1ccc2cnc3ccc(-c4ccccc4)cc3c2n1-c1cccc(C(F)(F)F)c1	113	627
O=c1ccc2cnc3ccc(-c4ccncc4)cc3c2n1-c1cccc(C(F)(F)F)c1	92	246
Nc1ncc(-c2ccc3ncc4ccc(=O)n(-c5cccc(C(F)(F)F)c5)c4c3c2)cn1	22	40
O=c1ccc2cnc3ccc(-c4cnc5ccccc5c4)cc3c2n1-c1cccc(C(F)(F)F)c1	1180	2270
Nc1ccc(-c2ccc3ncc4ccc(=O)n(CC5CCNCC5)c4c3c2)cn1	6440	11500
Nc1ccc(-c2ccc3ncc4ccc(=O)n(-c5ccccc5)c4c3c2)cn1	33	47
O=c1ccc2cnc3ccc(N4CCNCC4)cc3c2n1-c1cccc(C(F)(F)F)c1	> 20000	22000
O=c1ccc2cnc3ccc(C4=CCNCC4)cc3c2n1-c1cccc(C(F)(F)F)c1	15700	18400
CN(C)C(=O)c1cccc(-n2c(=O)ccc3cnc4ccc(-c5ccc(N)nc5)cc4c32)c1	859	1520
Nc1ccc(-c2ccc3ncc4ccc(=O)n(-c5cccc(Oc6ccccc6)c5)c4c3c2)cn1	1670	2430
CCOc1cccc(-n2c(=O)ccc3cnc4ccc(-c5ccc(N)nc5)cc4c32)c1	683	912
CN(C)c1ncc(-c2ccc3ncc4ccc(=O)n(-c5cccc(C(F)(F)F)c5)c4c3c2)cn1	1950	3130
Nc1ccc(-c2ccc3ncc4ccc(=O)n(C5CCNCC5)c4c3c2)cn1	2370	2800
Nc1ccc(-c2ccc3ncc4ccc(=O)n(C5CC5)c4c3c2)cn1	560	215
Nc1ccc(-c2ccc3ncc4ccc(=O)n(C5CCOCC5)c4c3c2)cn1	1340	41
Nc1ccc(-c2ccc3ncc4ccc(=O)n(C5CCCCC5)c4c3c2)cn1	707	676
Nc1ccc(-c2ccc3ncc4ccc(=O)n(C5CCCC5)c4c3c2)cn1	882	1260
O=c1ccc2cnc3ccc(-c4cccc(C(F)(F)F)c4)cc3c2n1-c1cccc(C(F)(F)F)c1	4200	3380
O=c1ccc2cnc3ccc(Br)cc3c2n1-c1cccc(C(F)(F)F)c1	5580	4950
Nc1cccc(-c2ccc3ncc4ccc(=O)n(-c5cccc(C(F)(F)F)c5)c4c3c2)c1	120	103
CN(C)c1cccc(-c2ccc3ncc4ccc(=O)n(-c5cccc(C(F)(F)F)c5)c4c3c2)c1	3250	3290
C=Cc1ccc2ncc3ccc(=O)n(-c4cccc(C(F)(F)F)c4)c3c2c1	3240	4900
NC(=O)c1ccc(-c2ccc3ncc4ccc(=O)n(-c5cccc(C(F)(F)F)c5)c4c3c2)cc1	1060	1270
